Common to all, as to test: biochemical
Common to all, as to parameters: KINOMEscan scanMAX active site-directed competition binding assay, percent of control, 468 kinases
What all share (details): competition binding, percent of control

For one experiment, the target named is T1, CDK4-cyclinD1 (Homo sapiens, UniProt P11802).
T1 construct: cyclinD1
The essentials: (§1)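 KINOMEscan active site-directed competition binding assay against 468 human kinases with 100 μM S-carvone. Binding expressed as % of control, with 35% of control as the inhibition threshold.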

A further experiment deals with T2, PCTK1 (Homo sapiens, UniProt Q00536).
T2 construct: gene CDK16
The essentials: as §1

In experiment [1] the target is EGFR(L747-S752del, P753S) (Homo sapiens, UniProt P00533, DEL747-752/P753S). The gist of the method: as §1
The next experiment has as its target MERTK (Homo sapiens, UniProt Q12866). The gist of the method: as §1
Another experiment concerns the target EGFR(L861Q) (Homo sapiens, UniProt P00533, L861Q). The gist of the method:
as §1

Another experiment deals with T3, DCAMKL1 (Homo sapiens, UniProt O15075).
T3 construct: gene DCLK1
The essentials: as §1

For another experiment, the target named is CAMK2A (Homo sapiens, UniProt Q9UQM7). The essentials:
as §1

The target in the next experiment is WEE2 (Homo sapiens, UniProt P0C1S8). The gist of the method: as §1
Another experiment deals with AURKB (Homo sapiens, UniProt Q96GD4). The essentials: as §1
Sequence of AURKB (Q96GD4 whole entry): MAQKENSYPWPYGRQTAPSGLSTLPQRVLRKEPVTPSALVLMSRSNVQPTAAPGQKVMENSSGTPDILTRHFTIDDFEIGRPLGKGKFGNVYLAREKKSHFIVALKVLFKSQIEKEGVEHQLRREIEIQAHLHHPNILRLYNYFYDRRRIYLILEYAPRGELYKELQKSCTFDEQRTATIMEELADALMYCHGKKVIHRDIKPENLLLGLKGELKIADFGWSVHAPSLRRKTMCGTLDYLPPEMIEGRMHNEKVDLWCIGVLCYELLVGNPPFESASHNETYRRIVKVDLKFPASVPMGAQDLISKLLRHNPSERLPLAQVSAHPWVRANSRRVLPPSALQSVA
The next experiment has as its target PIK3CA(H1047L) (Homo sapiens, UniProt P42336, H1047L). The gist of the method:
as §1

In a further experiment the target is ERN1 (Homo sapiens, UniProt O75460). The essentials: as §1
For a further experiment, the target named is T4, PCTK2 (Homo sapiens, UniProt Q00537).
T4 construct: gene CDK17
The essentials: as §1

The next experiment addresses PRKCH (Homo sapiens, UniProt P24723). The gist of the method:
as §1

The target of the next experiment is TXK (Homo sapiens, UniProt P42681). The gist of the method:
as §1

The target of a further experiment is EPHB4 (Homo sapiens, UniProt P54760). The gist of the method:
as §1

For experiment [2], the target named is T5, JAK2(JH1domain-catalytic) (Homo sapiens, UniProt O60674).
T5 construct: JH1domain-catalytic
T5 sequence (O60674 whole entry): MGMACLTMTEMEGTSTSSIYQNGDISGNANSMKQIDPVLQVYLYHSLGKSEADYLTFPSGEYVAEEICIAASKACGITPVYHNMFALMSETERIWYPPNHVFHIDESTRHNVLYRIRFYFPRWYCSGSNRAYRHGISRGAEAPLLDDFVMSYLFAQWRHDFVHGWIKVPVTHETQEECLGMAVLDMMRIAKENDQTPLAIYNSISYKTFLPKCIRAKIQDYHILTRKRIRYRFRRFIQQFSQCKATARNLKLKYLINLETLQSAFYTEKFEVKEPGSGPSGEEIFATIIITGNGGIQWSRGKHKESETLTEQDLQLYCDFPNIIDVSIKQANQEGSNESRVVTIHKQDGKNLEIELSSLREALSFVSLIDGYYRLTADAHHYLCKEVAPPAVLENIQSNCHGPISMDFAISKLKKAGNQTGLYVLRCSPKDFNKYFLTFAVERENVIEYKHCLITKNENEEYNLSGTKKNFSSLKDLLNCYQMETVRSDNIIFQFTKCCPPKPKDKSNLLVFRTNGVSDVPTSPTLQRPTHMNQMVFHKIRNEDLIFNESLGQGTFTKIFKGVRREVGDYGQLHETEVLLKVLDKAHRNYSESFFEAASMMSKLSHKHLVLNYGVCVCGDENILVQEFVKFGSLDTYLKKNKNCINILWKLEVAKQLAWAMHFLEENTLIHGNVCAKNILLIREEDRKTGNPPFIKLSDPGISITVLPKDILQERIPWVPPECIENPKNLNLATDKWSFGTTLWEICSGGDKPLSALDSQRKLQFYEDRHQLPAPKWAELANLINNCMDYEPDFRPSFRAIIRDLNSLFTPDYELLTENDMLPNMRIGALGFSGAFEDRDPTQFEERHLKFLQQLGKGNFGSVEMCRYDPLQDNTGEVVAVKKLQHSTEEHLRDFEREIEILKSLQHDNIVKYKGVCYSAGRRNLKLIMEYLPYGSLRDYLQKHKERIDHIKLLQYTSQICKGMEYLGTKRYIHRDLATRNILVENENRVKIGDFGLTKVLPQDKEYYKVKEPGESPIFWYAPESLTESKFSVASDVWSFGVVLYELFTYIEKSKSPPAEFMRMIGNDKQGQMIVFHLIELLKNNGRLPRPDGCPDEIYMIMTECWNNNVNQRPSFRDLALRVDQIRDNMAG
The essentials: as §1

The target in the next experiment is MAP4K2 (Homo sapiens, UniProt Q12851). The gist of the method: as §1
A further experiment deals with EPHB2 (Homo sapiens, UniProt P29323). The essentials:
as §1

In the next experiment the target is EPHB1 (Homo sapiens, UniProt P54762). The essentials:
as §1

The target in the next experiment is EGFR(L747-T751del,Sins) (Homo sapiens, UniProt P00533, DEL747-750/T751S). The gist of the method:
as §1

For a further experiment, the target named is MYLK4 (Homo sapiens, UniProt Q86YV6). The essentials: as §1
Sequence of MYLK4 (Q86YV6 whole entry): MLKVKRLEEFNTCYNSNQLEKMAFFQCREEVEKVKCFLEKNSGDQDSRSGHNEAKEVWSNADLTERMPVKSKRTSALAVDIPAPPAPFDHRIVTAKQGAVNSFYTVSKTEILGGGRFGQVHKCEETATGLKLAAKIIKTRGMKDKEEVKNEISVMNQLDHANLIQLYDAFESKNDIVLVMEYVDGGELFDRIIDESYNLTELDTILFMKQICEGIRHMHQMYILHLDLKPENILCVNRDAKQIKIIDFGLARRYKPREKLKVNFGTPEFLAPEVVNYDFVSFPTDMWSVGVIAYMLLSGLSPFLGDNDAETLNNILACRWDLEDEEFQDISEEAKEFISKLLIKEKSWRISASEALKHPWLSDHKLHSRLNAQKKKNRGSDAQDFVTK

The structures appear in SMILES notation.

Sequence of CAMK2A (Q9UQM7 whole entry): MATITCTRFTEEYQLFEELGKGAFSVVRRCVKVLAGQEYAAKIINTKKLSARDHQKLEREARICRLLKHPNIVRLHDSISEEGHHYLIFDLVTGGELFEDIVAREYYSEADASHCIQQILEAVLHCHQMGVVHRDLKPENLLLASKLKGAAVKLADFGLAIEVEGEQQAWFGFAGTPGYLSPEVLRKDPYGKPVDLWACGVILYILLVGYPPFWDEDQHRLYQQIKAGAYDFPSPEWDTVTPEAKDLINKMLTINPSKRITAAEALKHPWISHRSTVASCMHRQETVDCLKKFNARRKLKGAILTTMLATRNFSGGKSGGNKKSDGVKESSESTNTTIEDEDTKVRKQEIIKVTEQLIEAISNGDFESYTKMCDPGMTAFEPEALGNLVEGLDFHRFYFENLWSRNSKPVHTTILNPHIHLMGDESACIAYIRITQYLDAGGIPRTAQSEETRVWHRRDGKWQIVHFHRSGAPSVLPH
T1 sequence (P11802 whole entry): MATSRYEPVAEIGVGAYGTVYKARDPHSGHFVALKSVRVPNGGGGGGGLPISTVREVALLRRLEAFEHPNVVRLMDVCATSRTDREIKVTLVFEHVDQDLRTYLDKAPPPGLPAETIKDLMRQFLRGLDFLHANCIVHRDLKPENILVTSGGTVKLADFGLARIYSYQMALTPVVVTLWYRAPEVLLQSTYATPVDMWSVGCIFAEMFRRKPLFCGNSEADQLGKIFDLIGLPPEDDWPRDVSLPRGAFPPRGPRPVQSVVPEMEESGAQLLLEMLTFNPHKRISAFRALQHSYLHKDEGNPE
T1 sequence (P24385 whole entry partner): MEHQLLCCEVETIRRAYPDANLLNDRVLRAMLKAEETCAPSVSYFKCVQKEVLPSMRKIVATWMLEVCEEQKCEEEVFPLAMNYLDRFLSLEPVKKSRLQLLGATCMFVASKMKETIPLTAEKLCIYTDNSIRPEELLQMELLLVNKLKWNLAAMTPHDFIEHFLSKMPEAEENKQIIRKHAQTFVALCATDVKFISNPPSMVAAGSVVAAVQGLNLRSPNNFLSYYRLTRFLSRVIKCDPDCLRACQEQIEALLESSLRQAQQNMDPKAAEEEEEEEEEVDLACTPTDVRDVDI
Sequence of EPHB1 (P54762 whole entry): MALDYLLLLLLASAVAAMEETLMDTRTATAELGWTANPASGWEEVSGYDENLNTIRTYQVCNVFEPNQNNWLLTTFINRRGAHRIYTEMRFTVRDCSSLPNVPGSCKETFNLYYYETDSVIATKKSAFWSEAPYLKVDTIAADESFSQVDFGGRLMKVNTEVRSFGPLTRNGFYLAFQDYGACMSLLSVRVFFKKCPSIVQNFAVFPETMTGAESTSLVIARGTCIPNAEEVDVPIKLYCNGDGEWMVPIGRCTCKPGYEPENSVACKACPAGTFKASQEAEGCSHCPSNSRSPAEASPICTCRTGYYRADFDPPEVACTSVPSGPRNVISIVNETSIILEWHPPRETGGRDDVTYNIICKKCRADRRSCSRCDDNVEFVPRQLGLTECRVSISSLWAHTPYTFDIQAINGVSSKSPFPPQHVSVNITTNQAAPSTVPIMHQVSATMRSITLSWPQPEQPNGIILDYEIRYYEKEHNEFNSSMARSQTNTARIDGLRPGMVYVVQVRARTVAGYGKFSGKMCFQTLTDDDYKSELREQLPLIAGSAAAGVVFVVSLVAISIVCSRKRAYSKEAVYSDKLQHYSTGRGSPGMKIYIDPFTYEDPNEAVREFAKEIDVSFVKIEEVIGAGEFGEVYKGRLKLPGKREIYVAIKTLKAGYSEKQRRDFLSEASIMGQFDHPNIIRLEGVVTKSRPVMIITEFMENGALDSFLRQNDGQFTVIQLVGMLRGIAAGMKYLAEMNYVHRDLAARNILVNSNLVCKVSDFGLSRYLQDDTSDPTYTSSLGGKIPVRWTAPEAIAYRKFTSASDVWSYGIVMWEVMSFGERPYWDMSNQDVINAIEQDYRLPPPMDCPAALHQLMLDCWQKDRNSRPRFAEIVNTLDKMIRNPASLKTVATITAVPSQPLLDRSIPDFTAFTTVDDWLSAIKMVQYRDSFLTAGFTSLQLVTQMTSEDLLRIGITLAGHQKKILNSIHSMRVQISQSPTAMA
Sequence of MERTK (Q12866 whole entry): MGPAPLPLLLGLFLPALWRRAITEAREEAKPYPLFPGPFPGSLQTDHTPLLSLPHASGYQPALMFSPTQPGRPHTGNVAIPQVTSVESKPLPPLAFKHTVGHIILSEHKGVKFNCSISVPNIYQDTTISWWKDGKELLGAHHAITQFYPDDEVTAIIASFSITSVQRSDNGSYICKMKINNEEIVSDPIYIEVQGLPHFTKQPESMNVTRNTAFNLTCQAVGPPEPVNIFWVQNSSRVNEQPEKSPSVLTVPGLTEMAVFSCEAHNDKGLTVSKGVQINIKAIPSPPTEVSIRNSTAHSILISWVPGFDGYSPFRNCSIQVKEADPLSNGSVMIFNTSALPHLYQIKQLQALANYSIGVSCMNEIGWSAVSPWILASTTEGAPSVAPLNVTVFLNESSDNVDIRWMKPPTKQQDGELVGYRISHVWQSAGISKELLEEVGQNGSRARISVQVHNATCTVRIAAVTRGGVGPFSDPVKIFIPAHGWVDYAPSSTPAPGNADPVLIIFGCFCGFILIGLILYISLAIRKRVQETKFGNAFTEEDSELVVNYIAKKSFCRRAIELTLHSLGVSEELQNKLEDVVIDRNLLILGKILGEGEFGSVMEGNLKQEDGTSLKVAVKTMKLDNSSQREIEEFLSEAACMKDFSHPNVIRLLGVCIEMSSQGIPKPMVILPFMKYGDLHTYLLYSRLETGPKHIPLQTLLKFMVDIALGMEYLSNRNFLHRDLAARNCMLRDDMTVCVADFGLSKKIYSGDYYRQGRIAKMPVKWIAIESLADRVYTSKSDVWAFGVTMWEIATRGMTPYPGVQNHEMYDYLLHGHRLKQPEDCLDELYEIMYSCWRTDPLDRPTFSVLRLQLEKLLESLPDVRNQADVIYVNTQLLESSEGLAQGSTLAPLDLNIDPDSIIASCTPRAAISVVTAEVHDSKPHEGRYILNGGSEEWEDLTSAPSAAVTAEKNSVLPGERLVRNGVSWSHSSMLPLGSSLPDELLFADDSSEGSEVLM

On to `C=C(C)[C@H]1CC=C(C)C(=O)C1` [S-carvone], for which the remaining binding at 100 µM at CDK4-cyclinD1 amounted to 73%; at PCTK1, 100%; in experiment [1] it was 68%; at MERTK, 90%; at EGFR(L861Q), 65%; on DCAMKL1, 85%. In addition, the remaining binding at 100 µM was found to be 79% at CAMK2A; 88% at WEE2; 68% at AURKB; 74% on PIK3CA(H1047L); 90% at ERN1; 97% at PCTK2. Moreover, the remaining binding at 100 µM at PRKCH turned out to be 73%; on TXK it was 89%; at EPHB4, 68%; in experiment [2], 78%; at MAP4K2, 94%; on EPHB2, 66%. Further, the results for the remaining binding at 100 µM at EPHB1, on EGFR(L747-T751del,Sins) and on MYLK4 were 88%, 78% and 93%, respectively.

For the origin of these results see article PMC10174618, “Monoterpenoid aryl hydrocarbon receptor allosteric antagonists protect against ultraviolet skin damage in female mice” (Nature Communications, 2023).
